According to patent publication US20020137929A1, “1 - (3-heterocyclylphenyl) isothiourea, -isourea, -guanidine and -amidine herbicidal agents” (Intellectual Property Department, BASF Aktiengesellschaft, priority 1998, published 2002):

What was measured:
[1] = system: ECHORC (Watergrass (Calif.)); experiment: Preemergence weed control under flooded paddy conditions; type: in vivo, Echinochloa oryzoides; settings: rated 3-4 weeks after treatment
Outline: (§1)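 First, seeds or propagules go into the top 0.5 cm of silt loam; next, water is held 1.5 to 3 cm over the soil; then compound (50/50 acetone/water) is pipetted into it at about 0.0313 to 0.500 kg/ha; finally plants are rated visually 0-9 after three to four weeks.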

ZEAMX (Corn, Field) = experiment: Preemergence herbicidal evaluation; type: in vivo, Zea mays; settings: rated 4-5 weeks after treatment
Outline: (§2)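 Test compound, dissolved in aqueous acetone, was sprayed over planted soil cups at an equivalent of about 0.0156 to 0.500 kg/ha; seeds had been mixed with potting soil. Greenhouse growth followed, with visual 0-9 scoring of injury at four to five weeks.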

[2] = system: IPOHE (Morningglory, Ivyleaf); experiment: Postemergence herbicidal evaluation; type: in vivo, Ipomoea hederacea
Outline: (§3)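 Visual 0–9 rating versus control (stand, vigor, malformation, size, chlorosis, overall appearance), taken four to five weeks post-spray. Two-week-old seedlings received roughly 0.0156–0.500 kg/ha active in acetone/water (50/50) with 0.5% TWEEN 20 via nozzle at 40 psi.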

SETVI (Foxtail, Green) [3] = experiment: Postemergence herbicidal evaluation; type: in vivo, Setaria viridis
Outline: as §3

ABUTH (Velvetleaf) = experiment: Preemergence herbicidal evaluation; type: in vivo, Abutilon theophrasti; settings: rated 4-5 weeks after treatment
Outline: as §2

CYPIR (Rice Flatsedge) = experiment: Preemergence weed control under flooded paddy conditions; type: in vivo, Cyperus iria; settings: rated 3-4 weeks after treatment
Outline: as §1

MOOVA (Monochoria) = experiment: as above; type: in vivo, Monochoria vaginalis; settings: rated 3-4 weeks after treatment
Outline: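 Greenhouse paddy assay. Acetone/water (50/50 v/v) solutions dosed into flood water, equivalent to about 0.0313 to 0.500 kg/ha active ingredient, over seeds planted 0.5 cm deep in silt loam. Score: 0-9 visual, based on stand, vigor, malformation, size and chlorosis, 3 to 4 weeks after treatment.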

GALAP (Galium) = experiment: Postemergence herbicidal evaluation; type: in vivo, Galium aparine
Outline: as §3

SETVI (Foxtail, Green) [4] = experiment: Preemergence herbicidal evaluation; type: in vivo, Setaria viridis; settings: rated 4-5 weeks after treatment
Outline: as §2

ECHCG (Barnyardgrass) = experiment: Preemergence herbicidal evaluation; type: in vivo, Echinochloa crus-galli; settings: rated 4-5 weeks after treatment
Outline: as §2

[5] = system: SAGPY (Arrowhead (Pygmaea)); experiment: Postemergence weed control under flooded paddy conditions; type: in vivo, Sagittaria pygmaea; settings: postemergence weeds, 3-4 weeks after treatment
Outline: (§4)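 Flood-water application, about 0.0313–0.500 kg/ha a.i. in aqueous/acetone 50/50 v/v; water depth 1.5–3 cm throughout. Weeds 3–5 cm, rice 1.5–2.5 leaf. Greenhouse; 0–9 visual rating vs control at 3–4 wk.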

[6] = system: IPOHE (Morningglory, Ivyleaf); experiment: Preemergence herbicidal evaluation; type: in vivo, Ipomoea hederacea; settings: rated 4-5 weeks after treatment
Outline: as §2

[7] = system: ECHORC (Watergrass (Calif.)); experiment: Postemergence weed control under flooded paddy conditions; type: in vivo, Echinochloa oryzoides; settings: postemergence weeds, 3-4 weeks after treatment
Outline: as §4

[8] = system: TRZAWR (Wheat, Winter, cv Riband); experiment: Postemergence herbicidal evaluation; type: in vivo, Triticum aestivum
Outline: as §3

Compound: Cn1c(C(F)(F)F)cc(=O)n(-c2cc(N=C3SCC(=O)N3CCC(=O)O)c(Cl)cc2F)c1=O [Compound 31, 2-{{2-Chloro-5-[3,6-dihydro-3-methyl-2,6-dioxo-4-(trifluoromethyl)-1(2H)-pyrimidinyl]-4-fluoro-phenyl}imino}-4-oxo-3-thiazolidinepropionic acid]
- Herbicidal rating ECHORC ([1]; 0.0625 kg/ha): 1.0
- Herbicidal rating ECHORC ([1]; 0.1250 kg/ha): 2.0
- Herbicidal rating ECHORC ([1]; 0.2500 kg/ha): 5.0
- Preemergence herbicidal rating ZEAMX (ZEAMX (Corn, Field); rate 0.0625 kg/ha): 3.0
- Preemergence herbicidal rating ZEAMX (ZEAMX (Corn, Field); rate 0.1250 kg/ha): 7.0
- Preemergence herbicidal rating ZEAMX (ZEAMX (Corn, Field); rate 0.2500 kg/ha): 9.0
- Postemergence herbicidal rating IPOHE ([2]; Rate 0.0158 kg/ha): 9.0
- Postemergence herbicidal rating IPOHE ([2]; Rate 0.0315 kg/ha): 9.0
- Postemergence herbicidal rating IPOHE ([2]; Rate 0.0630 kg/ha): 9.0
- Postemergence herbicidal rating SETVI (SETVI (Foxtail, Green) [3]; Rate 0.0158 kg/ha): 0.0
- Postemergence herbicidal rating SETVI (SETVI (Foxtail, Green) [3]; Rate 0.0315 kg/ha): 0.0
- Postemergence herbicidal rating SETVI (SETVI (Foxtail, Green) [3]; Rate 0.0630 kg/ha): 7.0
- Preemergence herbicidal rating ABUTH (ABUTH (Velvetleaf); rate 0.0625 kg/ha): 0.0
- Preemergence herbicidal rating ABUTH (ABUTH (Velvetleaf); rate 0.1250 kg/ha): 9.0
- Preemergence herbicidal rating ABUTH (ABUTH (Velvetleaf); rate 0.2500 kg/ha): 9.0
- Herbicidal rating CYPIR (CYPIR (Rice Flatsedge); 0.0625 kg/ha): 0.0
- Herbicidal rating CYPIR (CYPIR (Rice Flatsedge); 0.1250 kg/ha): 0.0
- Herbicidal rating CYPIR (CYPIR (Rice Flatsedge); 0.2500 kg/ha): 2.5
- Herbicidal rating MOOVA (MOOVA (Monochoria); 0.0625 kg/ha): 0.0
- Herbicidal rating MOOVA (MOOVA (Monochoria); 0.1250 kg/ha): 0.0
- Herbicidal rating MOOVA (MOOVA (Monochoria); 0.2500 kg/ha): 2.5
- Postemergence herbicidal rating GALAP (GALAP (Galium); Rate 0.0158 kg/ha): 0.0
- Postemergence herbicidal rating GALAP (GALAP (Galium); Rate 0.0315 kg/ha): 1.0
- Postemergence herbicidal rating GALAP (GALAP (Galium); Rate 0.0630 kg/ha): 3.0
- Preemergence herbicidal rating SETVI (SETVI (Foxtail, Green) [4]; rate 0.0625 kg/ha): 1.0
- Preemergence herbicidal rating SETVI (SETVI (Foxtail, Green) [4]; rate 0.1250 kg/ha): 9.0
- Preemergence herbicidal rating SETVI (SETVI (Foxtail, Green) [4]; rate 0.2500 kg/ha): 9.0
- Preemergence herbicidal rating ECHCG (ECHCG (Barnyardgrass); rate 0.0625 kg/ha): 0.0
- Preemergence herbicidal rating ECHCG (ECHCG (Barnyardgrass); rate 0.1250 kg/ha): 9.0
- Preemergence herbicidal rating ECHCG (ECHCG (Barnyardgrass); rate 0.2500 kg/ha): 9.0
- Herbicidal rating SAGPY ([5]; rate 0.0625 kg/ha): 0.0
- Herbicidal rating SAGPY ([5]; rate 0.1250 kg/ha): 0.0
- Herbicidal rating SAGPY ([5]; rate 0.2500 kg/ha): 0.0
- Preemergence herbicidal rating IPOHE ([6]; rate 0.0625 kg/ha): 0.0
- Preemergence herbicidal rating IPOHE ([6]; rate 0.1250 kg/ha): 5.0
- Preemergence herbicidal rating IPOHE ([6]; rate 0.2500 kg/ha): 9.0
- Herbicidal rating ECHORC ([7]; rate 0.0625 kg/ha): 1.0
- Herbicidal rating ECHORC ([7]; rate 0.1250 kg/ha): 2.0
- Herbicidal rating ECHORC ([7]; rate 0.2500 kg/ha): 5.0
- Postemergence herbicidal rating TRZAWR ([8]; Rate 0.0158 kg/ha): 5.0
- Postemergence herbicidal rating TRZAWR ([8]; Rate 0.0315 kg/ha): 5.5
- Postemergence herbicidal rating TRZAWR ([8]; Rate 0.0630 kg/ha): 6.5
